Reference: US7655756B2 (Johnson & Johnson Pharmaceutical Research & Development, LLC, priority 2005, dated 2010)
Where two headings read alike, the source gives them in different places.

Experiments:
[1] = biological target: T1, ligand binding domain of ERRγ (Homo sapiens, UniProt P62508); test: ThermoFluor thermal shift assay, ERRγ ligand binding domain; details: for ΔTm, thermal stabilization of ERRγ / ΔTm at 100 µM: 100 μM test compound, 0.1 mg/mL protein, 25 mM HEPES pH 8.0, Tm free protein 49.6 °C; for Kd: read-out: Estimated dissociation constant, ERRγ; for ΔTm at 100 µM: read-out: ΔTm, thermal stabilization of ERRγ
T1 construct: 6His; made in house; host or cells: E. coli BL21(DE3)
T1 sequence (P62508 229-458): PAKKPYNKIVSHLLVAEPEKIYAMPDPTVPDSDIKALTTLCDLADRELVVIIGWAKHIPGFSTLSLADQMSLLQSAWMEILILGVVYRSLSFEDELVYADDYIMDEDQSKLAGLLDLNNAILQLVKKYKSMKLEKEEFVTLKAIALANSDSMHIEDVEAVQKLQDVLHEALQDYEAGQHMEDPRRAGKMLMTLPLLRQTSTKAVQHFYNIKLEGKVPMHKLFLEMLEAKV
Description: The vector was in E. coli BL21(DE3) and cultured in Minimal media (M9) at 37° C. to an OD595 0.6-0.8, followed by induction at 15° C. with 0.4 mM IPTG for 20 hours. The next day, the culture was harvested and lysed in buffer A (Buffer A: 20 mM Tris-HCl, pH 7.5, 0.4 M NaCl and 5 mM Imidazole) using an Emulsiflex-C5 french press (Avestin). Lysates were spun at 40,000×g for 45 minutes to remove insoluble material. The clarified lysate was applied on a Ni-NTA column and eluted with a linear gradient of imidazole. The protein was further purified by applying the eluent on a Superdex 200 HR 10/30 column (Amersham Pharmacia Biotech) equilibrated with Buffer B (Buffer B: 20 mM Tris-HCl pH 7.5, 0.2M NaCl, 1 mM EDTA and 1 mM DTT). […] Fractions were pulled and concentrated to 4 mg/ml and frozen in liquid nitrogen and stored at −80° C.
The ligand binding domain of ERRγ was screened against a library of known estrogen activators and a generic drug library using ThermoFluor®. ThermoFluor® is a miniaturized thermal shift assay, that has been developed for HTS applications; as a secondary assay for confirmation and characterization of hits; and as a functional assay to characterize orphan proteins. ThermoFluor® exploits the well-described phenomenon of ligand induced stabilization of macromolecules. Ligand binding energy adds directly to the ground state energy of a macromolecule and results in increased thermal stability. The degree of stabilization is proportional to the binding affinity of the ligand for the macromolecule.
Assay plates were prepared by dispensing 2 μL of a protein-dye solution and 2 μL of the test compound in a 384-well plate. […] Finally 1 μL of mineral oil was dispensed on top to prevent evaporation during the high throughput screen (HTS). ThermoFluor® is an HTS assay that measures protein unfolding based on fluorescence detection of the denatured form of the protein. The reporter for the protein unfolding event is the environmentally sensitive dye ANS that is incorporated in the screening buffer. During a typical experiment the 384-well plate is heated at a ramping rate of 1° C./min and the thermal unfolding of the protein is monitored at 1° C. intervals by measuring fluorescence changes detected through a CCD camera. Captured images are integrated and a melting curve is generated that relates fluorescence to fraction of unfolded protein as a function of temperature. […] Hits were identified from the screen by measuring an increase in the melting temperature of the protein.
In order to estimate binding affinities, it was taken into account that the oligomeric state of ERRγ which is a dimer (N2), and that of a single ligand (Lf) can interact per monomer subunit with equal affinity. The melting curve for such a system is described by the following three equilibria:
To compare dissociation constants at a common reference temperature, Tref, the following equation was used: […]
In the thermodynamic treatment of the data the following assumptions were made: i) the small ligand interacts only with the folded state of the protein, ii) the reactions are reversible; iii) the unfolding protein reaction is a two-state process and iv) ideal dilute solutions are being used (specific activity for protein and ligands is equal to 1).

[2] = biological target: T2, ERRβ (Homo sapiens, UniProt O95718); test: ThermoFluor thermal shift assay, ERRβ; format: binding; details: for ΔTm, thermal stabilization of ERRβ / ΔTm at 100 µM: 100 μM test compound, 0.1 mg/mL protein, 25 mM HEPES pH 8.0, Tm free protein 47.5 °C; for Kd: read-out: Estimated dissociation constant, ERRβ; for ΔTm at 100 µM: read-out: ΔTm, thermal stabilization of ERRβ
T2 sequence (O95718 208-432 limits assumed): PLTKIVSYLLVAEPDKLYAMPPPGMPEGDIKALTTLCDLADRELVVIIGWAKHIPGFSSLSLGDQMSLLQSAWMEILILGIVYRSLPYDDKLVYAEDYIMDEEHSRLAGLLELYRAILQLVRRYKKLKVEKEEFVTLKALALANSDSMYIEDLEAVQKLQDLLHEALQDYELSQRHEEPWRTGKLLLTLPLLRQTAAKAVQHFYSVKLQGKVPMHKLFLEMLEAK

[3] = biological target: T3, ERRα (Homo sapiens, UniProt P11474); test: ThermoFluor thermal shift assay, ERRα; format: binding; details: for ΔTm, thermal stabilization of ERRα / ΔTm at 100 µM: 100 μM test compound, 0.1 mg/mL protein, 25 mM HEPES pH 8.0, 25 μM ANS, 2% DMSO, Tm free protein 54.4 °C; for ΔTm at 100 µM: read-out: ΔTm, thermal stabilization of ERRα
T3 sequence (P11474 193-421 limits assumed): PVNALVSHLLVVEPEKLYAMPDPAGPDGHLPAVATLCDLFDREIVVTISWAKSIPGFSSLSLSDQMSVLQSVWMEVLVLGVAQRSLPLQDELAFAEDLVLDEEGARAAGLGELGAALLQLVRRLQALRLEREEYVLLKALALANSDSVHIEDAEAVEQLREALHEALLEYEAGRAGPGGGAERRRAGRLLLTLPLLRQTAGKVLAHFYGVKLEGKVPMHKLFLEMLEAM

[4] = biological target: T4, ERα (Homo sapiens, UniProt P03372); test: ThermoFluor thermal shift assay, ERα; format: binding
T4 sequence (P03372 1-595): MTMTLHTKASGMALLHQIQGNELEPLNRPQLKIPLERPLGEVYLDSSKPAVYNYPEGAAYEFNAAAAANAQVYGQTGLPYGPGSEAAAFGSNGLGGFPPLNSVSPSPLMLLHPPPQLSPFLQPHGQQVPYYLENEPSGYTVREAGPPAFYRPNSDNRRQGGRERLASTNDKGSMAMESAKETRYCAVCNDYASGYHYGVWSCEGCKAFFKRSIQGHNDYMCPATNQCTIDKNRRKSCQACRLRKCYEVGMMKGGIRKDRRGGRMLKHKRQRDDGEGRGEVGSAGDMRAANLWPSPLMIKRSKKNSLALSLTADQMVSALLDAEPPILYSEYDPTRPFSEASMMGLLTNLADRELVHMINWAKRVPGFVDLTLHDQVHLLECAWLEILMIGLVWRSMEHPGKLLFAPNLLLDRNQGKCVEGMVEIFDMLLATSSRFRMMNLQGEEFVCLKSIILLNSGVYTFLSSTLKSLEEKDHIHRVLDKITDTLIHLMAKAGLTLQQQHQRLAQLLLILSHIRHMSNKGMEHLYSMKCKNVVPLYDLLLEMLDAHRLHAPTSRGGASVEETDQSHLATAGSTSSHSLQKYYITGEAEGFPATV

[5] = biological target: ERβ (Homo sapiens, UniProt Q92731); test: ThermoFluor thermal shift assay, ERβ; format: binding; details: for Kd: calculated at reference temperature 25 °C from ΔTm of Table II, ΔHu 122 kcal/mol, read-out: Estimated dissociation constant, ERγ
Sequence of ERβ (Q92731 whole entry, species assumed): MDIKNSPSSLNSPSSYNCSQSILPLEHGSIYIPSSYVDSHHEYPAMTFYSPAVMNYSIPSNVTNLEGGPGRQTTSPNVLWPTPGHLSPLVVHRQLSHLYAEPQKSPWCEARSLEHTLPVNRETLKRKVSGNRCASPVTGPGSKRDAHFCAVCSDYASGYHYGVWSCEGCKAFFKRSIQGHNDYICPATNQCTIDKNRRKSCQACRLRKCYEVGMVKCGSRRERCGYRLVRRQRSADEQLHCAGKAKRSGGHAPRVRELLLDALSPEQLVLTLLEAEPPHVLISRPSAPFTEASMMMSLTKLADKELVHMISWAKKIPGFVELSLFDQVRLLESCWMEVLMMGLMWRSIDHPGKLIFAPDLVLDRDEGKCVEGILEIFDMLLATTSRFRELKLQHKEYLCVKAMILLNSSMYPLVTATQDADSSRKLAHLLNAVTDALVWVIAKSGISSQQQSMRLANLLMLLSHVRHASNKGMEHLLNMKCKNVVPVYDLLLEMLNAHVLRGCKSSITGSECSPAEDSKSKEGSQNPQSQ

[6] = 100 μM test compound, 0.1 mg/mL protein, 25 mM HEPES pH 8.0, Tm free protein 39.1 °C
[7] = calculated at reference temperature 25 °C from ΔTm of Table II, ΔHu 112 kcal/mol, read-out: Estimated dissociation constant, ERα
[8] = 100 μM test compound, 0.1 mg/mL protein, 25 mM HEPES pH 8.0, Tm free protein 41.1 °C
[9] = 100 μM test compound, 0.1 mg/mL protein, 25 mM HEPES pH 8.0, Tm free protein 41.1 °C, read-out: ΔTm, thermal stabilization of ERβ
[10] = 100 μM test compound, 0.1 mg/mL protein, 25 mM HEPES pH 8.0, Tm free protein 39.1 °C, read-out: ΔTm, thermal stabilization of ERα

4-bromocresol
ΔTm, thermal stabilization of ERRγ [1]: 4.3 °C | Kd ([1]; calculated at reference temperature 25 °C from ΔTm of Table II, ΔHu 165 kcal/mol): 0.633 µM | ΔTm, thermal stabilization of ERRβ [2]: 0.5 °C | Kd ([2]; calculated at reference temperature 25 °C from ΔTm of Table II, ΔHu 155 kcal/mol): 17.2 µM | ΔTm, thermal stabilization of ERRα [3]: 0.1 °C

COc1cc2c(cc1O)CC[C@@H]1[C@@H]2CC[C@]2(C)[C@@H](O)CC[C@@H]12 [2-methoxy-estradiol]
ΔTm, thermal stabilization of ERRγ [1]: 0.0 °C | ΔTm, thermal stabilization of ERα [4, 6]: 3.5 °C | Kd [4, 7]: 2.66 µM | ΔTm, thermal stabilization of ERRβ [2]: −0.1 °C | ΔTm, thermal stabilization of ERβ [5, 8]: 2.9 °C | Kd [5]: 2.31 µM | ΔTm, thermal stabilization of ERRα [3]: 0.1 °C

C[C@]12CC[C@H]3[C@@H](CCC4=C[C@H](O)CC[C@@H]43)[C@@H]1CC[C@@H]2O [4-estrene-3-α-17-β-diol]
ΔTm at 100 µM [1]: -0.1 °C | Kd [4]: 1.27 µM | ΔTm at 100 µM ([4]; pH 8, read-out: ΔTm, thermal stabilization of ERα): 4.9 °C | ΔTm at 100 µM [2]: -0.1 °C | ΔTm at 100 µM [5, 9]: 7.7 °C | Kd [5]: 0.157 µM | ΔTm at 100 µM [3]: 0 °C

CCc1cc(O)ccc1Cl [4chloro-3ethyl-phenol]
ΔTm at 100 µM [1]: 4.1 °C | Kd [1]: 0.722 µM | ΔTm at 100 µM [2]: 0.4 °C | Kd [2]: 18 µM | ΔTm at 100 µM [3]: 0.2 °C

C[C@]12CC[C@@H]3c4ccc(O)cc4CC[C@H]3[C@@H]1CC[C@H]2O [17-α-estradiol]
ΔTm, thermal stabilization of ERRγ [1]: 1.3 °C | ΔTm, thermal stabilization of ERRβ [2]: 0.0 °C

C[C@]12CC[C@@H]3c4ccc(O)cc4CC[C@H]3[C@@H]1CC[C@@H]2O [17-β-estradiol]
ΔTm, thermal stabilization of ERRγ [1]: 0.6 °C | ΔTm, thermal stabilization of ERRβ [2]: −0.1 °C

N#CC(Cc1ccc(O)cc1)c1ccc(O)cc1 (stereo not drawn) [DPN]
ΔTm, thermal stabilization of ERRγ [1]: 0.3 °C | ΔTm, thermal stabilization of ERRβ [2]: 0.2 °C | ΔTm, thermal stabilization of ERRα [3]: −0.2 °C

O=c1c(-c2ccc(O)cc2)coc2cc(O)ccc12 [Daidzein]
ΔTm at 100 µM [1]: -0.1 °C | Interaction with / stabilization of ERRγ, in words ([1]; ThermoFluor): did not interact | ΔTm at 100 µM [4, 10]: 4.1 °C | ΔTm at 100 µM [2]: 0.3 °C | Interaction with / stabilization of ERRβ, in words ([2]; ThermoFluor): did not interact | ΔTm at 100 µM ([5]; pH 8, read-out: ΔTm, thermal stabilization of ERβ): 8.9 °C | ΔTm at 100 µM [3]: 0 °C | Interaction with / stabilization of ERRα, in words ([3]; ThermoFluor): did not interact

C[C@]12CC[C@@H]3c4ccc(O)cc4C[C@@H](CCCCCCCCC[S+]([O-])CCCC(F)(F)C(F)(F)F)[C@H]3[C@@H]1CC[C@@H]2O (stereo partly drawn) [ICI-182780]
ΔTm at 100 µM [1]: 0 °C | ΔTm at 100 µM [4, 10]: 13.9 °C | ΔTm at 100 µM [2]: 0 °C | ΔTm at 100 µM [5, 9]: 16.7 °C | ΔTm at 100 µM [3]: 0 °C

CCCc1c(-c2ccc(O)cc2)nn(-c2ccc(O)cc2)c1-c1ccc(O)cc1 [PPT]
ΔTm, thermal stabilization of ERRγ [1]: −1.8 °C | ΔTm, thermal stabilization of ERα [4, 6]: 11.7 °C | Kd [4, 7]: 0.0387 µM | ΔTm, thermal stabilization of ERRβ [2]: −3.5 °C | ΔTm, thermal stabilization of ERβ [5, 8]: 9.5 °C | Kd [5]: 0.0583 µM | ΔTm, thermal stabilization of ERRα [3]: −2.3 °C

CCN(CC)CCOc1ccc(C(=C(Cl)c2ccccc2)c2ccccc2)cc1 [clomiphene]
ΔTm at 100 µM [5, 9]: 9.7 °C | Kd [5]: 0.0521 µM

O=C(c1ccc(OCCN2CCCCC2)cc1)c1c(-c2ccc(O)cc2)sc2cc(O)ccc12 [raloxifene]
ΔTm at 100 µM [5, 9]: 11.9 °C

Oc1ccc(/C=C/c2cc(O)cc(O)c2)cc1 [resvesterol]
ΔTm, thermal stabilization of ERRγ [1]: 0.4 °C | ΔTm, thermal stabilization of ERRβ [2]: 0.2 °C | ΔTm, thermal stabilization of ERRα [3]: 0.0 °C
